Test results taken from patent US9856254B2, “Alkoxy substituted imidazoquinolines” (3M INNOVATIVE PROPERTIES COMPANY, priority 2003, dated 2018).

| melting point | Structure (SMILES) |
| --- | --- |
| 188.5 to 190 °C | CCCn1c(COCC)nc2c(N)nc3ccc(OCCCN4CCCC4=O)cc3c21 [Example 405, 1-(3-{[4-Amino-2-(ethoxymethyl)-1-propyl-1H-imidazo[4,5-c]quinolin-8-yl]oxy}propyl)pyrrolidin-2-one] |
| 176 to 180 °C | CCOCc1nc2c(N)nc3cc(OCCCCCCNS(C)(=O)=O)ccc3c2n1CC(C)(C)NS(C)(=O)=O [Example 45, N-(2-{4-Amino-2-ethoxymethyl-7-[6-(methanesulfonylamino)hexyloxy]-1H-imidazo[4,5-c]quinolin-1-yl}-1,1-dimethylethyl)methanesulfonamide] |
| 192 to 197 °C (dec.) | CCCn1c(COCC)nc2c(N)nc3ccc(OCC(=O)N4CCN(C(=O)OC(C)(C)C)CC4)cc3c21 [Example 404, tert-Butyl 4-({[4-amino-2-(ethoxymethyl)-1-propyl-1H-imidazo[4,5-c]quinolin-8-yl]oxy}acetyl)piperazine-1-carboxylate] |
| 157 °C | CCOCc1nc2c(N)nc3cc(OCCCN4CCCC4=O)ccc3c2n1CCCCNS(C)(=O)=O [Example 400, N-(4-{4-Amino-2-(ethoxymethyl)-7-[3-(2-oxopyrrolidin-1-yl)propoxy]-1H-imidazo[4,5-c]quinolin-1-yl}butyl)methanesulfonamide] |
| 193 to 196 °C | CCCn1c(COC)nc2c(N)nc3ccc(OCCCN4CCOCC4)cc3c21 [Example 554, 2-Methoxymethyl-8-(3-morpholin-4-ylpropoxy)-1-propyl-1H-imidazo[4,5-c]quinolin-4-amine] |
| 138 to 140 °C | CCCc1nc2c(N)nc3cc(OCCCCCCNS(C)(=O)=O)ccc3c2n1CCCCNS(C)(=O)=O [Example 47, N-(4-{4-Amino-7-[6-(methanesulfonylamino)hexyloxy]-2-propyl-1H-imidazo[4,5-c]quinolin-1-yl}butyl)methanesulfonamide] |
| 238 to 239 °C (dec.) | CCc1nc2c(N)nc3cc(OCC(=O)C(C)(C)C)ccc3c2n1CCOc1ccccc1 [Example 52, 1-[4-Amino-2-ethyl-1-(2-phenoxyethyl)-1H-imidazo[4,5-c]quinolin-7-yloxy]-3,3-dimethylbutan-2-one] |
| 179.5 to 181 °C | CCCn1c(COCC)nc2c(N)nc3ccc(OC4CCN(C(=O)OC(C)(C)C)CC4)cc3c21 [Example 410, tert-Butyl 4-{[4-amino-2-(ethoxymethyl)-1-propyl-1H-imidazo[4,5-c]quinolin-8-yl]oxy}piperidine-1-carboxylate] |
| 173 to 174 °C | CCCc1nc2c(N)nc3cc(OCCCN)ccc3c2n1CC(C)C [Example 8, 7-(3-Aminopropoxy)-1-(2-methylpropyl)-2-propyl-1H-imidazo[4,5-c]quinolin-4-amine] |
| 222.5 to 223.4 °C | CCCCc1nc2c(N)nc3ccc(OCC(=O)N4CCCCC4)cc3c2n1C [Example 33, 2-Butyl-1-methyl-8-(2-oxo-2-piperidin-1-ylethoxy)-1H-imidazo[4,5-c]quinolin-4-amine] |
| 194 to 198 °C | CCCc1nc2c(N)nc3cc(OCCCNC(=O)NS(=O)(=O)c4ccc(F)cc4)ccc3c2n1CC(C)C [Example 21, N-{[(3-{[4-Amino-1-(2-methylpropyl)-2-propyl-1H-imidazo[4,5-c]quinolin-7-yl]oxy}propyl)amino]carbonyl}-4-fluorobenzenesulfonamide] |
| 126 °C (dec.) | CCCc1nc2c(N)nc3cc(OCC4CCCCO4)ccc3c2n1CC(C)C (centres unmarked) [Example 54, 1-(2-Methylpropyl)-2-propyl-7-(tetrahydropyran-2-ylmethoxy)-1H-imidazo[4,5-c]quinolin-4-amine] |
| 178 to 182 °C | CCCc1nc2c(N)nc3cc(OC4CCOC4)ccc3c2n1CC(C)C (centres unmarked) [Example 55, 1-(2-Methylpropyl)-2-propyl-7-(tetrahydrofuran-3-yloxy)-1H-imidazo[4,5-c]quinolin-4-amine] |
| 191 to 192 °C | CCCn1c(COCC)nc2c(N)nc3cc(OCCN4CCOCC4)ccc3c21 [Example 649, 2-(Ethoxymethyl)-7-(2-morpholin-4-ylethoxy)-1-propyl-1H-imidazo[4,5-c]quinolin-4-amine] |
| 194 to 196 °C | CCCn1c(COC)nc2c(N)nc3ccc(OCC4CCCN(C)C4)cc3c21 (centres unmarked) [Example 558, 2-Methoxymethyl-8-(1-methylpiperidin-3-ylmethoxy)-1-propyl-1H-imidazo[4,5-c]quinolin-4-amine] |
| 193 to 196 °C | CCCn1c(COCC)nc2c(N)nc3ccc(OC(=O)N4CCOCC4)cc3c21 [Example 570, 4-Amino-2-(ethoxymethyl)-1-propyl-1H-imidazo[4,5-c]quinolin-8-yl morpholine-4-carboxylate] |
| 214 to 216 °C | CCCn1c(COC)nc2c(N)nc3ccc(OCC(=O)N4CCSCC4)cc3c21 [Example 556, 2-(Methoxymethyl)-8-(2-oxo-2-thiomorpholin-4-ylethoxy)-1-propyl-1H-imidazo[4,5-c]quinolin-4-amine] |
| 152.8 °C (dec.) | CCCCc1nc2c(N)nc3ccc(OCCC4CCN(C(=O)N5CCOCC5)CC4)cc3c2n1C [Example 42, 2-Butyl-1-methyl-8-{2-[1-(morpholin-4-ylcarbonyl)piperidin-4-yl]ethoxy}-1H-imidazo[4,5-c]quinolin-4-amine] |

| melting point | Structure (SMILES) |
| --- | --- |
| 250 to 255 °C (dec.) | CCCCc1nc2c(N)nc3ccc(OCCNC(=O)CC)cc3c2n1C [Example 43, N-[2-(4-Amino-2-butyl-1-methyl-1H-imidazo[4,5-c]quinolin-8-yloxy)ethyl]propanamide] |
| 240 to 243.5 °C | CCCn1c(COCC)nc2c(N)nc3ccc(OC4CCN(S(C)(=O)=O)CC4)cc3c21 [Example 413, 2-(Ethoxymethyl)-8-{[1-(methylsulfonyl)piperidin-4-yl]oxy}-1-propyl-1H-imidazo[4,5-c]quinolin-4-amine] |
| 215 to 217 °C | CCCn1c(COCC)nc2c(N)nc3cc(OC4CCN(S(C)(=O)=O)CC4)ccc3c21 [Example 561, 2-(Ethoxymethyl)-7-{[1-(methylsulfonyl)piperidin-4-yl]oxy}-1-propyl-1H-imidazo[4,5-c]quinolin-4-amine] |
| 207 to 208.5 °C | CCCn1c(CCOC)nc2c(N)nc3cc(OC4CCN(C(N)=O)CC4)ccc3c21 [Example 391, 4-{[4-Amino-2-(2-methoxyethyl)-1-propyl-1H-imidazo[4,5-c]quinolin-7-yl]oxy}piperidine-1-carboxamide] |
| 155 to 157 °C | CCCn1c(COC)nc2c(N)nc3ccc(OCCC4CCCN4C)cc3c21 (centres unmarked) [Example 567, 2-(Methoxymethyl)-8-[2-(1-methylpyrrolidin-2-yl)ethoxy]-1-propyl-1H-imidazo[4,5-c]quinolin-4-amine] |
| 190 to 192 °C | CCOCc1nc2c(N)nc3cc(OCCCCCCNC(C)=O)ccc3c2n1CC(C)(C)NC(C)=O [Example 50, N-(2-{7-[6-(Acetylamino)hexyloxy]-4-amino-2-ethoxymethyl-1H-imidazo[4,5-c]quinolin-1-yl}-1,1-dimethylethyl)acetamide] |
| 172 to 174 °C | CCCc1nc2c(N)nc3cc(OCCCNC(=O)c4cccnc4)ccc3c2n1CC(C)C [Example 16, N-{3-[4-Amino-1-(2-methylpropyl)-2-propyl-1H-imidazo[4,5-c]quinolin-7-yloxy]propyl}nicotinamide] |
| 189.4 to 192.6 °C | CCCCc1nc2c(N)nc3ccc(OCCC4CCN(C(=O)C(C)C)CC4)cc3c2n1C [Example 39, 1-{4-[2-(4-Amino-2-butyl-1-methyl-1H-imidazo[4,5-c]quinolin-8-yloxy)ethyl]piperidin-1-yl}-2-methylpropan-1-one] |
| 173 to 174 °C | CCCn1c(COC)nc2c(N)nc3ccc(OCCCOC(=O)N4CCOCC4)cc3c21 [Example 555, 3-{[4-Amino-2-(methoxymethyl)-1-propyl-1H-imidazo[4,5-c]quinolin-8-yl]oxy}propyl morpholine-4-carboxylate] |
| 206 to 208 °C | CCCc1nc2c(N)nc3cc(OCCN4CCCC4=O)ccc3c2n1CC(C)C [Example 18, 1-{2-[4-Amino-1-(2-methylpropyl)-2-propyl-1H-imidazo[4,5-c]quinolin-7-yloxy]ethyl}pyrrolidin-2-one] |
| 215 to 219 °C (dec.) | Cc1nc2c(N)nc3cc(OCCNC(=O)N4CCOCC4)ccc3c2n1CC(C)C [Example 19, N-(2-{[4-Amino-2-methyl-1-(2-methylpropyl)-1H-imidazo[4,5-c]quinolin-7-yl]oxy}ethyl)morpholine-4-carboxamide] |
| 196 to 197 °C | CCCn1c(COC)nc2c(N)nc3ccc(OCCCN4CCN(c5ccccn5)CC4)cc3c21 [Example 657, 2-(Methoxymethyl)-1-propyl-8-[3-(4-pyridin-2-ylpiperazin-1-yl)propoxy]-1H-imidazo[4,5-c]quinolin-4-amine] |
| 210 to 212 °C | CCCCc1nc2c(N)nc3ccc(OCCC4CCNCC4)cc3c2n1C [Example 38, 2-Butyl-1-methyl-8-(2-piperidin-4-ylethoxy)-1H-imidazo[4,5-c]quinolin-4-amine] |
| 202 to 204 °C | CCCn1c(COCC)nc2c(N)nc3cc(OC4CCNCC4)ccc3c21 [Example 416, 2-(Ethoxymethyl)-7-(piperidin-4-yloxy)-1-propyl-1H-imidazo[4,5-c]quinolin-4-amine] |
| 163 to 164.5 °C | CCCn1c(COCC)nc2c(N)nc3cc(OC4CCN(C(=O)NC(C)C)CC4)ccc3c21 [Example 417, 4-{[4-Amino-2-(ethoxymethyl)-1-propyl-1H-imidazo[4,5-c]quinolin-7-yl]oxy}-N-isopropylpiperidine-1-carboxamide] |
| 205 to 206 °C | Cc1nc2c(N)nc3cc(OCCNC(=O)C(C)C)ccc3c2n1CC(C)C [Example 17, N-{2-[4-Amino-2-methyl-1-(2-methylpropyl)-1H-imidazo[4,5-c]quinolin-7-yloxy]ethyl}-2-methylpropanamide] |
| 236.5 to 239 °C | CCCn1c(COCC)nc2c(N)nc3ccc(OC4CCN(C(=O)NC(C)C)CC4)cc3c21 [Example 412, 4-{[4-Amino-2-(ethoxymethyl)-1-propyl-1H-imidazo[4,5-c]quinolin-8-yl]oxy}-N-isopropylpiperidine-1-carboxamide] |
